This is an account of results in EP0489581A2, “Cosmetic composition” (UNILEVER PLC, priority 1990, dated 1992).

One assay deals with hair growth. Briefly: Observation of hair growth with ethyl nicotinate in a shampoo. Format: in vivo. To be noted: included in a shampoo, in the absence of any other hair growth promoter.
The test system of the next assay is head, forehead and neck. Briefly: Half-head wash with ethyl nicotinate shampoo against placebo shampoo (erythema meter, Cyclops pyrometer, sensations). The format is in vivo, human. How it is done:
EXPERIMENTS WITH ETHYL NICOTINATE ESTER IN SHAMPOO Five subjects washed one side of the head, forehead and neck with a shampoo the same as in Example 5 but containing a varying level of ethyl nicotinate for a period ranging from one to five minutes, whilst the other side was washed with a placebo shampoo of corresponding composition. The changes occurring on the various symmetrical sites around the head were assessed with the erythema meter and a "Cyclops" pyrometer in sequence. The readings were continued for between 45 minutes and one hour.

Consider `CCOC(=O)c1cccnc1` [EtNic, ethyl nicotinate], for which the hair growth result in the assay on hair growth was “promote hair growth”. For the same molecule, in the assay with head, forehead and neck (active sites against placebo sites, Cyclops pyrometer, wash of one to five minutes), the temperature entry was “either rose or did not fall so low as the placebo sites”. The redness result in the assay on head, forehead and neck (active sites against placebo sites, erythema meter, wash of one to five minutes) was “increased the redness”. In the assay with head, forehead and neck (crown of the head), the “longer term sensations of a pleasant nature, duration after treatment” value is reported as “up to two”.
